Several values for one entry are separate records, joined by “and”; a condition that tells them apart may be missing. Identical values can stand only once. Like-named read-outs stand apart in the source and are kept apart here.
Legend:
D122-96 = experiment: Combination 4 day growth assay (Cell TiterGlo), D122-96; format: cell-based; conditions: Mus musculus, 96 h, single treatment, read-out: Absolute IC50
Procedure: (§1) Cell lines for this study are obtained from ATCC and grown under ATCC recommended conditions, except for LXFA-983L, which is obtained from Oncotest/Charles Rivers Laboratories, Wilmington, Mass. and D122-96, which is obtained from L. Eisenbach (Weizman Institute of Science, Rehovot, Israel)—both grown under recommended conditions. […] The proliferation assay is performed as a 4 day growth assay using Cell TiterGlo® as the readout. Briefly, cells are plated in 96-well cell culture plates and allowed to adhere overnight at 37° C. The following day, cells are treated with compounds, either single treatments or combination treatments. First, the testing compounds are serially diluted in DMSO, followed by dilution into media as a 5× concentration with 1% DMSO, and finally added to cells in media to dilute to 1×. The cells are incubated at 37° C. for 4 more days. At the end of the incubation period, Cell TiterGlo® reagent is mixed and added to the wells. After 10 minutes, the luminescence is read by a Perkin Elmer Envision instrument. Absolute IC50 values generated by a 4-parameter logistics model for the single and combination treatments are generated, followed by combination indexes for each combination treatment and cell line. The combination IC50 values are adjusted based on the total concentration of each compound when added together. […] The combination index (CI) measures the degree to which the potency of a combination therapy differs from the expected-if-additive potency and is based on the Loewe definition of additivity.
(§2) [formula] Where • CAy and CBy are the concentrations of therapies A and B that produce an effect, y, when given in combination • ICAy and ICBy are the concentrations of A and B that produce an effect, y, when given individually The biological interpretation of the combination index is as follows: synergistic if the combination index <0.5, additive if the combination index is between 0.5 and 2, and antagonistic if the combination index is >2.

Kyse-410 = experiment: Combination 4 day growth assay (Cell TiterGlo), KYSE-410; format: cell-based; conditions: Homo sapiens, single treatment, read-out: Absolute IC50
Procedure: (§3) Cell lines for this study are obtained from ATCC and grown under ATCC recommended conditions, except for LXFA-983L, which is obtained from Oncotest/Charles Rivers Laboratories, Wilmington, Mass. and D122-96, which is obtained from L. Eisenbach (Weizman Institute of Science, Rehovot, Israel)—both grown under recommended conditions. […] The proliferation assay is performed as a 4 day growth assay using Cell TiterGlo® as the readout. Briefly, cells are plated in 96-well cell culture plates and allowed to adhere overnight at 37° C. The following day, cells are treated with compounds, either single treatments or combination treatments. First, the testing compounds are serially diluted in DMSO, followed by dilution into media as a 5× concentration with 1% DMSO, and finally added to cells in media to dilute to 1×. The cells are incubated at 37° C. for 4 more days. At the end of the incubation period, Cell TiterGlo® reagent is mixed and added to the wells. After 10 minutes, the luminescence is read by a Perkin Elmer Envision instrument. Absolute IC50 values generated by a 4-parameter logistics model for the single and combination treatments are generated, followed by combination indexes for each combination treatment and cell line. The combination IC50 values are adjusted based on the total concentration of each compound when added together. […]

H2122 = experiment: Combination 4 day growth assay (Cell TiterGlo), H2122; format: cell-based; conditions: Homo sapiens, NCI-H2122, 96 h, single treatment, read-out: Absolute IC50
Procedure: as §1, §2

SW1463 xenograft = experiment: Anti-tumor growth activity, SW1463 colorectal xenograft; format: in vivo; conditions: Abemaciclib 50 mg/kg QDx28
SW837 = experiment: Combination 4 day growth assay (Cell TiterGlo), SW837; format: cell-based; conditions: Homo sapiens, single treatment, read-out: Absolute IC50
Procedure: as §1, §2

MIA Paca-2 = experiment: Combination 4 day growth assay (Cell TiterGlo), MIA Paca-2; format: cell-based; conditions: Homo sapiens, single treatment, read-out: Absolute IC50
Procedure: as §1, §2

SW1463 = experiment: Combination 4 day growth assay (Cell TiterGlo), SW1463; format: cell-based; conditions: Homo sapiens, single treatment, read-out: Absolute IC50
Procedure: as §1, §2

SW1573 = experiment: Combination 4 day growth assay (Cell TiterGlo), SW1573; format: cell-based; conditions: Homo sapiens, 96 h, single treatment, read-out: Absolute IC50
Procedure: as §1, §2

SW756 = experiment: Combination 4 day growth assay (Cell TiterGlo), SW756; format: cell-based; conditions: Homo sapiens, single treatment, read-out: Absolute IC50
Procedure: as §3

MiaPaca-2 xenograft = experiment: Anti-tumor growth activity, MiaPaca-2 pancreatic xenograft; format: in vivo; conditions: Abemaciclib 50 mg/kg QDx28
H1373 = experiment: Combination 4 day growth assay (Cell TiterGlo), H1373; format: cell-based; conditions: Homo sapiens, NCI-H1373, 96 h, single treatment, read-out: Absolute IC50
Procedure: as §3

SW837 xenograft = experiment: Anti-tumor growth activity, SW837 colorectal xenograft; format: in vivo; conditions: Abemaciclib 50 mg/kg QDx28
UM-UC-3 = experiment: Combination 4 day growth assay (Cell TiterGlo), UM-UC-3; format: cell-based; conditions: Homo sapiens, UMUC3, 96 h, single treatment, read-out: Absolute IC50
Procedure: as §1, §2

H2030 = experiment: Combination 4 day growth assay (Cell TiterGlo), H2030; format: cell-based; conditions: Homo sapiens, NCI-H2030, 96 h, single treatment, read-out: Absolute IC50
Procedure: as §3

H23 = experiment: Combination 4 day growth assay (Cell TiterGlo), H23; format: cell-based; conditions: Homo sapiens, NCI-H23, 96 h, single treatment, read-out: Absolute IC50
Procedure: as §1, §2

H1792 = experiment: Combination 4 day growth assay (Cell TiterGlo), H1792; format: cell-based; conditions: Homo sapiens, NCI-H1792, 96 h, single treatment, read-out: Absolute IC50
Procedure: as §3

H2122 xenograft = experiment: Anti-tumor growth activity, lung cancer H2122 xenograft mouse model; format: in vivo; conditions: H2122 Lung; Abemaciclib 50 mg/kg QDx28
Procedure: To evaluate in vivo target inhibition and anti-tumor efficacy of a compound, Human lung cancer cells, H358 or H2122 are implanted into nude mice xenograft tumor models. Either H358 or H2122 cells (10×10^6 in a 1:1 Matrigel® mix, 0.2 mL total volume) are implanted by subcutaneous injection in hind leg of nude female mice (Harlan Laboratories). A total of 5 mice each group are used for efficacy study, and a total of 3-4 mice each group are used for target engagement and PD study. Treatment is initiated with oral administration (gavage) of a test compound or vehicle (20% Captisol®, 25 mM phosphate, pH 2.0 in 0.2 mL volume when the tumor size reaches approximately […]. Tumor growth and body weight are monitored over time to evaluate efficacy and signs of toxicity. Bidimensional measurements of tumors are performed twice a week and tumor volumes are calculated based on mid-axis length and mid-axis width. Tumor volume data are transformed to a log scale to equalize variance across time and treatment groups. The log volume data are analyzed with a two-way repeated measures analysis of variance by time and treatment using the mixed procedures in SAS software (version 8.2). The correlation model for the repeated measures is spatial power. Treated groups are compared to the control group at each time point. The mixed procedure is also used separately for each treatment group to calculate adjusted means and standard errors at each time point. Both analyses account for the autocorrelation within each animal. The adjusted means and standard errors are plotted for each treatment group versus time.
H2122 lung tumor cells (10×10^6) are implanted by subcutaneous injection in hind leg of nude female mice (Taconic Biosciences). A total of 5 mice each group are used for efficacy study.

H358 = experiment: Combination 4 day growth assay (Cell TiterGlo), H358; format: cell-based; conditions: Homo sapiens, NCI-H358, 96 h, single treatment, read-out: Absolute IC50
Procedure: as §1, §2

Calu-1 = experiment: Combination 4 day growth assay (Cell TiterGlo), Calu-1; format: cell-based; conditions: Homo sapiens, single treatment, read-out: Absolute IC50
Procedure: as §1, §2

LXFA-983L = experiment: Combination 4 day growth assay (Cell TiterGlo), LXFA-983L; format: cell-based; conditions: 96 h, single treatment, read-out: Absolute IC50
Procedure: as §1, §2

EL3187 (PDX) = experiment: Anti-tumor growth activity, EL3187 lung PDX; format: in vivo; conditions: EL3187 Lung PDX; Erlotinib 25 mg/kg QDx28

With `CCN1CCN(Cc2ccc(Nc3ncc(F)c(-c4cc(F)c5nc(C)n(C(C)C)c5c4)n3)nc2)CC1` [Abemaciclib, abemaciclib] the IC50 (D122-96) was 5050 nM, the IC50 (Kyse-410; 96 h) was 3010 nM and the IC50 (H2122) was 548 nM. For the same compound, the “In Vivo Anti-Tumor Activities” value (SW1463 xenograft) was 55.1, the IC50 (SW837; 96 h) was 3590 nM and the IC50 (MIA Paca-2; 96 h) was 755 nM. For the same compound, the IC50 (SW1463; 96 h) was 328 nM, the IC50 (SW1573) was 996 nM and the IC50 (SW756; 96 h) was 4980 nM. The “In Vivo Anti-Tumor Activities” value (MiaPaca-2 xenograft) was 46.88, the IC50 (H1373) was greater than 10000 nM and the “In Vivo Anti-Tumor Activities” value (SW837 xenograft) was −2.13. For the same compound, the IC50 (UM-UC-3) was 1720 nM, the IC50 (H2030) was 9030 nM and the IC50 (H23) was 4970 nM. For the same compound, the IC50 (H1792) was 1100 nM, the “Tumor Growth Inhibition (%) or Regression (−%)” value (H2122 xenograft) was 79.3 and 79.1 and the IC50 (H358) was 1230 nM. The IC50 (Calu-1; 96 h) was greater than 10000 nM and the IC50 (LXFA-983L) was greater than 10000 nM.

With `C#Cc1cccc(Nc2ncnc3cc(OCCOC)c(OCCOC)cc23)c1` [Erlotinib, erlotinib] the IC50 (D122-96) was greater than 10000 nM, the IC50 (Kyse-410; KYSE-410, 96 h) was 469 nM and the IC50 (H2122) was 352 nM. The “In Vivo Anti-Tumor Activities” value (EL3187 (PDX)) was 7.8, the IC50 (SW837; SW837, 96 h) was greater than 10000 nM and the IC50 (MIA Paca-2; MIA PaCa-2, 96 h) was greater than 10000 nM. The IC50 (SW1463; SW1463, 96 h) was 446 nM, the IC50 (SW1573) was greater than 10000 nM and the IC50 (SW756; SW756, 96 h) was greater than 10000 nM. It also gave an IC50 (H1373) greater than 10000 nM, an IC50 (UM-UC-3) greater than 10000 nM and an IC50 (H2030) of 1480 nM. For the same compound, the IC50 (H23) was greater than 10000 nM, the IC50 (H1792) was greater than 10000 nM and the IC50 (H358) was 247 nM. It also gave an IC50 (Calu-1; Calu-1, 96 h) greater than 10000 nM and an IC50 (LXFA-983L; LXFA 983L) of 2820 nM.
